According to the supplement of paper PMC13380429:

Experiments:
Conditions in all cases: 72 h
Calu-3 [1] = experiment: relative viability EC50 (midpoint between 100% and the lowest measured viability); higher = less toxic
HepG2 [2] = experiment: as above
U2OS [3] = experiment: as above
Caco-2 [4] = experiment: as above
Vero E6 [5] = experiment: as above
Calu-3 [6] = experiment: drug sensitivity score (DSS) for viability; higher = more toxic; extreme values may be limits of the assay
HepG2 [7] = experiment: as above
U2OS [8] = experiment: as above
Caco-2 [9] = experiment: as above
Vero E6 [10] = experiment: as above
Calu-3 [11] = experiment: cell viability relative to DMSO; higher = less toxic
HepG2 [12] = experiment: as above
Caco-2 [13] = experiment: as above
Vero E6 [14] = experiment: as above
U2OS [15] = experiment: as above

Row | Compound | relative viability EC50 (Calu-3 [1]) [µM] | relative viability EC50 (HepG2 [2]) [µM] | relative viability EC50 (U2OS [3]) [µM] | relative viability EC50 (Caco-2 [4]) [µM] | relative viability EC50 (Vero E6 [5]) [µM] | drug sensitivity score (Calu-3 [6]) | drug sensitivity score (HepG2 [7]) | drug sensitivity score (U2OS [8]) | drug sensitivity score (Caco-2 [9]) | drug sensitivity score (Vero E6 [10]) | cell viability (Calu-3 [11]; 1 nM) [%] | cell viability (Calu-3 [11]; 10 nM) [%] | cell viability (Calu-3 [11]; 100 nM) [%] | cell viability (Calu-3 [11]; 1000 nM) [%] | cell viability (Calu-3 [11]; 10000 nM) [%] | cell viability (HepG2 [12]; 1 nM) [%] | cell viability (HepG2 [12]; 10 nM) [%] | cell viability (HepG2 [12]; 100 nM) [%] | cell viability (HepG2 [12]; 1000 nM) [%] | cell viability (HepG2 [12]; 10000 nM) [%] | cell viability (Caco-2 [13]; 1 nM) [%] | cell viability (Caco-2 [13]; 10 nM) [%] | cell viability (Caco-2 [13]; 100 nM) [%] | cell viability (Caco-2 [13]; 1000 nM) [%] | cell viability (Caco-2 [13]; 10000 nM) [%] | cell viability (Vero E6 [14]; 1 nM) [%] | cell viability (Vero E6 [14]; 10 nM) [%] | cell viability (Vero E6 [14]; 100 nM) [%] | cell viability (Vero E6 [14]; 1000 nM) [%] | cell viability (Vero E6 [14]; 10000 nM) [%] | cell viability (U2OS [15]; 1 nM) [%] | cell viability (U2OS [15]; 10 nM) [%] | cell viability (U2OS [15]; 100 nM) [%] | cell viability (U2OS [15]; 1000 nM) [%] | cell viability (U2OS [15]; 10000 nM) [%]
1 | COC[C@@H](NC(C)=O)C(=O)NCc1ccccc1 [Lacosamide] | > 10 | > 10 | > 10 | > 10 | > 10 | 0 | 0 | 0 | 0 | 0 | 99.1 | 99.5 | 90.6 | 114 | 110 | 98.3 | 97.5 | 98.3 | 98 | 96.1 | 92.8 | 90.5 | 81.7 | 98.8 | 106 | 98.5 | 97.4 | 86 | 90.6 | 104 | – | – | – | – | –
2 | O=C(NCCCCCCNC(=O)ON=C1CCCCC1)ON=C1CCCCC1 | > 10 | > 10 | – | > 10 | > 10 | 0 | 0 | – | 0 | 0 | 98.4 | 95.9 | 108 | 98.8 | 99.6 | 99.2 | 104 | 100 | 94.6 | 93.9 | 105 | 98.1 | 98.3 | 103 | 102 | 98.8 | 103 | 99.5 | 100 | 105 | – | – | – | – | –
3 | O=C(O)C1=CCNCC1 [isoguvacine] | > 10 | > 10 | – | > 10 | > 10 | 0 | 0 | – | 0 | 0 | 105 | 99.1 | 104 | 94.5 | 94.4 | 91 | 98.5 | 91.9 | 96.1 | 95 | 106 | 99.5 | 108 | 106 | 98.7 | 101 | 103 | 100 | 99.4 | 98.2 | – | – | – | – | –
4 | O=C(O)CCCCC(CCSCc1ccccc1)SCc1ccccc1 (configuration not stated) [CPI-613] | > 10 | > 10 | > 10 | – | > 10 | 0 | 0 | 0 | – | 0 | 103 | 104 | 97.6 | 106 | 101 | 97.5 | 102 | 97.2 | 100 | 104 | – | – | – | – | – | 98.7 | 94.8 | 97.8 | 95.7 | 100 | 100 | 96.7 | 95.5 | 96.4 | 112
5 | CCOc1cc2ncc(C#N)c(Nc3ccc(OCc4cccc(F)c4)c(Cl)c3)c2cc1NC(=O)/C=C/CN(C)C [HKI-357] | 0.373 | 2.41 | – | 1.63 | 1.37 | 10.7 | 7 | – | 8.6 | 9.8 | 101 | 81 | 51.5 | 94.1 | 32.9 | 97 | 93.6 | 102 | 90.9 | 0.3 | 94.4 | 95.3 | 88.1 | 77.9 | 6 | 99.7 | 106 | 92.6 | 65.3 | 0.2 | – | – | – | – | –
6 | COc1ccc(C(=O)Nc2sc3c(c2C(N)=O)CCCC3)cc1OC [TCS-359] | > 10 | > 10 | > 10 | – | > 10 | 0 | 0 | 0 | – | 0 | 100 | 93.4 | 101 | 91.1 | 105 | 94.4 | 102 | 89.6 | 97.6 | 94.5 | – | – | – | – | – | 108 | 105 | 96 | 98.3 | 98.3 | 96.8 | 99 | 102 | 98.4 | 105
7 | CC(=O)O[C@H]1C[C@@H]2CC[C@@H]3[C@H](CC[C@@]4(C)[C@H]3C[C@H]([N+]3(C)CCCCC3)[C@@H]4OC(C)=O)[C@@]2(C)C[C@@H]1[N+]1(C)CCCCC1 [pancuronium] | > 10 | > 10 | – | > 10 | > 10 | 0 | 0 | – | 0 | 0 | 114 | 101 | 103 | 104 | 99.5 | 98.2 | 103 | 101 | 106 | 102 | 106 | 99.9 | 97.8 | 97.5 | 94.1 | 102 | 102 | 106 | 101 | 97.9 | – | – | – | – | –
8 | O=C(Nc1ccc(C(O)(C(F)(F)F)C(F)(F)F)cc1)c1ccc(C(F)(F)F)cc1 [SR-1078] | 1.93 | > 10 | > 10 | – | > 10 | 4.1 | 0 | 0 | 2.3 | 0 | 109 | 105 | 118 | 91.7 | 48.6 | 114 | 99.9 | 101 | 99 | 112 | 104 | 99.6 | 95.4 | 99.7 | 56.4 | 100 | 100 | 99.6 | 97.6 | 95.6 | 105 | 107 | 102 | 102 | 93.2
